Reference: article PMC9246773, “Assessing the Activity of Antimicrobial Peptides Against Common Marine Bacteria Located in Rotifer (Brachionus plicatilis) Cultures” (Probiotics and Antimicrobial Proteins, 2022)
Values after ≈ are worked out from the molar mass of the structure shown. Non-standard residues stand in square brackets, D forms with d. Residues, ends and D or L forms follow the SMILES beside them.

How the values were obtained:
[1] = tested on: MRSA and P. aeruginosa bacterial infections; conditions: MRSA and P. aeruginosa infections in mice and nematodes, respectively; ref [23], [64], [65]; cited from earlier work
Experimental: The MIC assay under high salt concentration identified these peptides as being effective against V. rotiferianus and T. discolor at a high peptide concentration (65 µg mL^−1), however, the two bacterial species were not identified in the control rotifer culture, and the reduction of their presence cannot be quantified. In relation to other AMP research, the majority of AMPs are currently teste ...

Shewanella sp. [2] = assay type: cell-based; conditions: 48 h
Outline: (§1)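 2-fold peptide dilutions (0.125 - 65µg mL^-1), ~5 × 10^5 CFU mL^-1, MHB at 25‰ or 0‰ salinity; ± acetic acid (0.01% w/v, 0.2% BSA) diluent. 25 °C, read 24 and 48 h; visual MIC at 48 h, duplicates.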

Vibrio scophthalmi [3] = assay type: cell-based; conditions: 48 h
Outline: as §1

Vibrio harveyi [4] = assay type: cell-based; conditions: 48 h
Outline: as §1

[5] = tested on: Vibrio harveyi (ATCC 35084); assay type: cell-based; conditions: ATCC 35084, 48 h
Outline: as §1

Vibrio alginolyticus [6] = assay type: cell-based; conditions: 48 h
Outline: as §1

Vibrio rotiferianus [7] = assay type: cell-based; conditions: 48 h
Outline: as §1

[8] = tested on: Escherichia coli (ATCC 25922); assay type: cell-based; conditions: ATCC 25922, 48 h
Outline: as §1

Shewanella sp. [9] = assay type: cell-based; conditions: 48 h; remark: listed apart in the source
Outline: (§2)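 MIC, twofold broth microdilution in polypropylene plates; peptides 0.125–65 µg mL^−1; ~5 × 10^5 CFU mL^−1; MHB at 0‰ or 25‰ salinity. Acetic acid/BSA diluent where peptides precipitated. Duplicates. T. discolor: 1 MHB:7 seawater (25‰) only.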

Vibrio scophthalmi [10] = assay type: cell-based; conditions: 48 h; remark: listed apart in the source
Outline: as §2

Vibrio harveyi [11] = assay type: cell-based; conditions: 48 h; remark: listed apart in the source
Outline: as §2

Pseudoalteromonas sp. = assay type: cell-based; conditions: 48 h
Outline: as §2

[12] = tested on: Vibrio harveyi (ATCC 35084); assay type: cell-based; conditions: ATCC 35084, 48 h; remark: listed apart in the source
Outline: as §2

Vibrio alginolyticus [13] = assay type: cell-based; conditions: 48 h; remark: listed apart in the source
Outline: as §2

Tenacibaculum discolor = assay type: cell-based; conditions: 48 h
Outline: as §2

Vibrio rotiferianus [14] = assay type: cell-based; conditions: 48 h; remark: listed apart in the source
Outline: as §2

[15] = tested on: Escherichia coli (ATCC 25922); assay type: cell-based; conditions: ATCC 25922, 48 h; remark: listed apart in the source
Outline: as §2

[16] = Test whether the AMPs precipitated in MHB and required acetic acid adjustments; assay type: physicochemical; conditions: MIC two or more dilutions higher without acetic acid than with acetic acid = requires acetic acid adjustments; MHB 0‰
Experimental: The protocol was followed to determine the minimum inhibitory concentration (MIC) of the selected peptides. Two MIC assays were performed, firstly to determine whether each peptide precipitated in MHB and thereby required acetic acid adjustments (supplementary materials) and secondly, to determine the antimicrobial activity of each peptide in artificial seawater (25‰). Peptide stock solutions (1.3 mg mL^−1) were made by diluting the peptides in sterile deionised water. MHB was made with deionised water to reach a concentration of approaching 0‰ and artificial sea salts (Sigma-Aldrich® S9883) to reach a salinity of 25‰.
A broth microdilution protocol was followed to test whether the AMPs precipitated in MHB. The isolates T. discolor and Pseudoalteromonas were excluded from this assay because they required marine salts for growth. The peptides HHC10 and HHC36 previously required acetic acid adjustments according to [63] and were not trialled in this assay. To test if peptides required acetic acid, each peptide was diluted 1:2 in acetic acid (0.02% acetic acid w/v, containing 0.4% BSA) solution. […] The 96-well plates were incubated at 25 °C and read at 24 and 48 hours. The MIC was visually determined using a Sensititre™ Vizion™ Digital MIC Viewing System (Thermo Scientific™), and the lowest AMP concentration that had no bacterial growth was recorded as the MIC after 48 hours. […]

MIC Shewanella sp., Acetic (Shewanella sp. [2]): 1.02 µg/mL (≈ 0.658 µM)
MIC Shewanella sp., No acetic (Shewanella sp. [2]): 1.02 µg/mL (≈ 0.658 µM)
MIC V. scophthalmi, Acetic (Vibrio scophthalmi [3]): 0.51 µg/mL (≈ 0.329 µM)
MIC V. scophthalmi, No acetic (Vibrio scophthalmi [3]): 0.51 µg/mL (≈ 0.329 µM)
MIC V. harveyi, Acetic (Vibrio harveyi [4]): 2.03 µg/mL (≈ 1.31 µM)
MIC V. harveyi, No acetic (Vibrio harveyi [4]): 4.06 µg/mL (≈ 2.62 µM)
MIC V. harveyi ATCC 35084, Acetic [5]: 4.06 µg/mL (≈ 2.62 µM)
MIC V. harveyi ATCC 35084, No acetic [5]: 2.03 µg/mL (≈ 1.31 µM)
MIC V. alginolyticus, Acetic (Vibrio alginolyticus [6]): 4.06 µg/mL (≈ 2.62 µM)
MIC V. alginolyticus, No acetic (Vibrio alginolyticus [6]): 4.06 µg/mL (≈ 2.62 µM)
MIC V. rotiferianus, Acetic (Vibrio rotiferianus [7]): 1.02 µg/mL (≈ 0.658 µM)
MIC V. rotiferianus, No acetic (Vibrio rotiferianus [7]): 1.02 µg/mL (≈ 0.658 µM)
MIC E. coli ATCC 25922, Acetic [8]: 4.06 µg/mL (≈ 2.62 µM)
MIC E. coli ATCC 25922, No acetic [8]: 8.13 µg/mL (≈ 5.24 µM)
MIC Shewanella sp., salinity 0‰ (Shewanella sp. [9]): 2.03 µg/mL (≈ 1.31 µM)
MIC Shewanella sp., salinity 25‰ (Shewanella sp. [9]): > 65 µg/mL
MIC V. scophthalmi, salinity 0‰ (Vibrio scophthalmi [10]): 0.51 µg/mL (≈ 0.329 µM)
MIC V. scophthalmi, salinity 25‰ (Vibrio scophthalmi [10]): > 65 µg/mL
MIC V. harveyi, salinity 0‰ (Vibrio harveyi [11]): 4.06 µg/mL (≈ 2.62 µM)
MIC V. harveyi, salinity 25‰ (Vibrio harveyi [11]): > 65 µg/mL
MIC Pseudoalteromonas sp., salinity 25‰ (Pseudoalteromonas sp.): > 65 µg/mL
MIC V. harveyi ATCC 35084, salinity 0‰ [12]: 2.03 µg/mL (≈ 1.31 µM)
MIC V. harveyi ATCC 35084, salinity 25‰ [12]: > 65 µg/mL
MIC V. alginolyticus, salinity 0‰ (Vibrio alginolyticus [13]): 4.06 µg/mL (≈ 2.62 µM)
MIC V. alginolyticus, salinity 25‰ (Vibrio alginolyticus [13]): > 65 µg/mL
MIC T. discolor, salinity 25‰ (Tenacibaculum discolor): > 65 µg/mL
MIC V. rotiferianus, salinity 0‰ (Vibrio rotiferianus [14]): 1.02 µg/mL (≈ 0.658 µM)
MIC V. rotiferianus, salinity 25‰ (Vibrio rotiferianus [14]): > 65 µg/mL
MIC E. coli ATCC 25922, salinity 0‰ [15]: 2.03 µg/mL (≈ 1.31 µM)
MIC E. coli ATCC 25922, salinity 25‰ [15]: > 65 µg/mL
requirement for acetic acid (precipitation in MHB) [16]: did not
Compound: CC[C@@H](C)[C@@H](NC(=O)[C@@H](C)NC(=O)[C@@H](CCCNC(=N)N)NC(=O)[C@@H](Cc1c[nH]c2ccccc12)NC(=O)[C@@H](CCC(N)=O)NC(=O)[C@H](N)C(C)C)C(=O)N[C@H](CCCNC(=N)N)C(=O)N[C@@H](C(=O)N[C@H](CCCNC(=N)N)C(=O)N[C@@H](C(=O)N[C@@H](C(=O)N[C@H](CCCNC(=N)N)C(N)=O)[C@H](C)CC)C(C)C)C(C)C [DJK5] (H-[dV][dQ][dW][dR][dA][dI][dR][dV][dR][dV][dI][dR]-NH2; N-terminus and C-terminus assumed)
reduction of bacterial infections in terrestrial organisms [1]: successfully reduced
